“And” between values parts separate entries of the source, which are not always exact repeats. Equal entries are not always repeated.
Legend:
[1] = system: CYP3A4; test: in vitro; details: greater than 50% reduction, in only two donors among three lots of hepatocytes
Procedure: (§1) Cryopreserved human hepatocytes were quickly thawed at 37°C and then transferred into hepatocyte thawing medium. Cells were pelleted at 100 × g for 10 min and then resuspended in hepatocyte complete plating medium (CP medium). The cells were then seeded at 65,000 cells per well in 96-well collagen I coated plates. After cell attachment (4–6 h post-seeding), CP medium was exchanged for ice-cold complete incubation medium (HI medium) containing BD Matrigel™ at the concentration of 0.25 mg/ml. The cells were then incubated overnight at 37°C in a humidified 5% CO2 incubator. […] Cell death or loss of adhesion of hepatocytes during or after treatment were examined by microscopy.
A RNeasy 96 Kit (Qiagen) was used to extract the total cellular RNA from sandwich cultured hepatocytes in 96-well plates following the manufacturer's instructions. A total volume of 200 μL RNA was obtained via the column elution provided in the RNeasy kit. Five μL RNA extraction was mixed with TaqMan® Fast Virus 1-Step Master Mix (Life Technologies) in a final reaction volume of 20 μL and qRT-PCR was achieved using a QuantStudio 6 Flex Real-Time PCR System (Life Technologies), following the manufacturer's instructions. β-actin mRNA expression in the SCHH was used as a house-keeping gene for the normalization of target gene expressions. The mRNA levels in SCHH treated with AhR or CAR activators were expressed by a fold change, compared to the gene expressions without the treatment. […] Gene expression for each condition is expressed as a fold-change of mean ± standard deviation (SD) from three independent donors (each performed in triplicate). All primer and probe sets were purchased from Life Technologies (Table 2). When concentration-dependent induction observed, the in vitro induction mRNA data were fitted using the sigmoid 3-parameter equation in GraphPad Prism (La Jolla, CA) to estimate the in vitro concentration of inducer that produced half the maximum induction values (EC50).

[2] = system: SLC22A9 (OAT7); test: gene induction in sandwich-cultured human hepatocytes (qRT-PCR); type: cell-based; details: SCHH, 72 h; TCDD 50 nM, OP 50 µM, CITCO 5 µM, PB 1,000 µM (highest conc.); mean ± SD, three donors
[3] = system: SLC51B (OSTβ); test: as above; type: cell-based; details: SCHH, 72 h; TCDD 50 nM, OP 50 µM, CITCO 5 µM, PB 1,000 µM (highest conc.); mean ± SD, three donors
[4] = system: ABCC2 (MRP2); test: as above; type: cell-based; details: SCHH, 72 h; TCDD 50 nM, OP 50 µM, CITCO 5 µM, PB 1,000 µM (highest conc.); mean ± SD, three donors
Procedure: as §1
(§2) A RNeasy 96 Kit (Qiagen) was used to extract the total cellular RNA from sandwich cultured hepatocytes in 96-well plates following the manufacturer's instructions. A total volume of 200 μL RNA was obtained via the column elution provided in the RNeasy kit. Five μL RNA extraction was mixed with TaqMan® Fast Virus 1-Step Master Mix (Life Technologies) in a final reaction volume of 20 μL and qRT-PCR was achieved using a QuantStudio 6 Flex Real-Time PCR System (Life Technologies), following the manufacturer's instructions. β-actin mRNA expression in the SCHH was used as a house-keeping gene for the normalization of target gene expressions. The mRNA levels in SCHH treated with AhR or CAR activators were expressed by a fold change, compared to the gene expressions without the treatment. The 2^−ΔΔCt method ([Livak and Schmittgen, 2001]) was used to analyze the relative changes in gene expression, where the Ct is the cycle number at which the fluorescence in the reaction crosses the preset arbitrary threshold; the ΔCt represents the difference between the Ct target and reference and the ΔΔCt is the difference between the ΔCt of the test and the ΔCt of the preassigned control. Gene expression for each condition is expressed as a fold-change of mean ± standard deviation (SD) from three independent donors (each performed in triplicate). All primer and probe sets were purchased from Life Technologies (Table 2). When concentration-dependent induction observed, the in vitro induction mRNA data were fitted using the sigmoid 3-parameter equation in GraphPad Prism (La Jolla, CA) to estimate the in vitro concentration of inducer that produced half the maximum induction values (EC50).

[5] = system: SLC22A1 (OCT1); test: as above; type: cell-based; details: SCHH, 72 h; TCDD 50 nM, OP 50 µM, CITCO 5 µM, PB 1,000 µM (highest conc.); mean ± SD, three donors
Procedure: as §1, §2

[6] = system: SLCO1B1 (OATP1B1); test: as above; type: cell-based; details: SCHH, 72 h; TCDD 50 nM, OP 50 µM, CITCO 5 µM, PB 1,000 µM (highest conc.); mean ± SD, three donors
Procedure: as §1, §2

[7] = system: ABCC4 (MRP4); test: as above; type: cell-based; details: SCHH, 72 h; TCDD 50 nM, OP 50 µM, CITCO 5 µM, PB 1,000 µM (highest conc.); mean ± SD, three donors
Procedure: as §1, §2

[8] = system: ABCC5 (MRP5); test: as above; type: cell-based; details: SCHH, 72 h; TCDD 50 nM, OP 50 µM, CITCO 5 µM, PB 1,000 µM (highest conc.); mean ± SD, three donors
Procedure: as §1, §2

[9] = system: SLCO2B1 (OATP2B1); test: as above; type: cell-based; details: SCHH, 72 h; TCDD 50 nM, OP 50 µM, CITCO 5 µM, PB 1,000 µM (highest conc.); mean ± SD, three donors
Procedure: as §1, §2

[10] = system: ABCB11 (BSEP); test: as above; type: cell-based; details: SCHH, 72 h; TCDD 50 nM, OP 50 µM, CITCO 5 µM, PB 1,000 µM (highest conc.); mean ± SD, three donors
Procedure: as §1, §2

[11] = system: SLC47A1 (MATE1); test: as above; type: cell-based; details: SCHH, 72 h; TCDD 50 nM, OP 50 µM, CITCO 5 µM, PB 1,000 µM (highest conc.); mean ± SD, three donors
Procedure: as §1, §2

[12] = system: SLCO1B3 (OATP1B3); test: as above; type: cell-based; details: SCHH, 72 h; TCDD 50 nM, OP 50 µM, CITCO 5 µM, PB 1,000 µM (highest conc.); mean ± SD, three donors
Procedure: as §1, §2

[13] = system: ABCC6 (MRP6); test: as above; type: cell-based; details: SCHH, 72 h; TCDD 50 nM, OP 50 µM, CITCO 5 µM, PB 1,000 µM (highest conc.); mean ± SD, three donors
Procedure: as §1, §2

[14] = system: ABCC3 (MRP3); test: as above; type: cell-based; details: SCHH, 72 h; TCDD 50 nM, OP 50 µM, CITCO 5 µM, PB 1,000 µM (highest conc.); mean ± SD, three donors
Procedure: as §1, §2

[15] = system: ABCB1 (MDR1); test: as above; type: cell-based; details: SCHH, 72 h; TCDD 50 nM, OP 50 µM, CITCO 5 µM, PB 1,000 µM (highest conc.); mean ± SD, three donors
Procedure: as §1, §2

[16] = system: SLCO4C1 (OATP4C1); test: as above; type: cell-based; details: SCHH, 72 h; TCDD 50 nM, OP 50 µM, CITCO 5 µM, PB 1,000 µM (highest conc.); mean ± SD, three donors
Procedure: as §1, §2

[17] = system: SLC16A1 (MCT1); test: as above; type: cell-based; details: SCHH, 72 h; TCDD 50 nM, OP 50 µM, CITCO 5 µM, PB 1,000 µM (highest conc.); mean ± SD, three donors
[18] = system: SLC51A (OSTα); test: as above; type: cell-based; details: SCHH, 72 h; TCDD 50 nM, OP 50 µM, CITCO 5 µM, PB 1,000 µM (highest conc.); mean ± SD, three donors
[19] = system: CYP2C9; details: SCHH, 72 h; TCDD 50 nM, OP 50 µM, CITCO 5 µM, PB 1,000 µM (highest conc.); mean ± SD, three donors
Procedure: as §1
A RNeasy 96 Kit (Qiagen) was used to extract the total cellular RNA from sandwich cultured hepatocytes in 96-well plates following the manufacturer's instructions. […] The 2^−ΔΔCt method ([Livak and Schmittgen, 2001]) was used to analyze the relative changes in gene expression, where the Ct is the cycle number at which the fluorescence in the reaction crosses the preset arbitrary threshold; the ΔCt represents the difference between the Ct target and reference and the ΔΔCt is the difference between the ΔCt of the test and the ΔCt of the preassigned control. Gene expression for each condition is expressed as a fold-change of mean ± standard deviation (SD) from three independent donors (each performed in triplicate). […]

[20] = system: SLC15A1 (PEPT1); test: gene induction in sandwich-cultured human hepatocytes (qRT-PCR); type: cell-based; details: SCHH, 72 h; TCDD 50 nM, OP 50 µM, CITCO 5 µM, PB 1,000 µM (highest conc.); mean ± SD, three donors
[21] = system: SLC10A1 (NTCP); test: as above; type: cell-based; details: SCHH
Procedure: A RNeasy 96 Kit (Qiagen) was used to extract the total cellular RNA from sandwich cultured hepatocytes in 96-well plates following the manufacturer's instructions. A total volume of 200 μL RNA was obtained via the column elution provided in the RNeasy kit. Five μL RNA extraction was mixed with TaqMan® Fast Virus 1-Step Master Mix (Life Technologies) in a final reaction volume of 20 μL and qRT-PCR was achieved using a QuantStudio 6 Flex Real-Time PCR System (Life Technologies), following the manufacturer's instructions. β-actin mRNA expression in the SCHH was used as a house-keeping gene for the normalization of target gene expressions. The mRNA levels in SCHH treated with AhR or CAR activators were expressed by a fold change, compared to the gene expressions without the treatment. The 2^−ΔΔCt method ([Livak and Schmittgen, 2001]) was used to analyze the relative changes in gene expression, where the Ct is the cycle number at which the fluorescence in the reaction crosses the preset arbitrary threshold; the ΔCt represents the difference between the Ct target and reference and the ΔΔCt is the difference between the ΔCt of the test and the ΔCt of the preassigned control. Gene expression for each condition is expressed as a fold-change of mean ± standard deviation (SD) from three independent donors (each performed in triplicate). […] When concentration-dependent induction observed, the in vitro induction mRNA data were fitted using the sigmoid 3-parameter equation in GraphPad Prism (La Jolla, CA) to estimate the in vitro concentration of inducer that produced half the maximum induction values (EC50).

[22] = system: SLC22A7 (OAT2); test: as above; type: cell-based; details: SCHH, 72 h; TCDD 50 nM, OP 50 µM, CITCO 5 µM, PB 1,000 µM (highest conc.); mean ± SD, three donors
[23] = system: CYP1A1; test: in vitro
Procedure: as §1
as §2, with “When concentration-dependent induction observed, the in vitro induction mRNA data were fitted using the sigmoid 3-parameter equation in GraphPad Prism (La Jolla, CA) to estimate the in vitro concentration of inducer that produced half the maximum induction values (EC50).” left out

[24] = system: SLC29A2 (ENT2); test: gene induction in sandwich-cultured human hepatocytes (qRT-PCR); type: cell-based; details: SCHH, 72 h; TCDD 50 nM, OP 50 µM, CITCO 5 µM, PB 1,000 µM (highest conc.); mean ± SD, three donors
[25] = system: SLC22A5 (OCTN2); test: as above; type: cell-based; details: SCHH, 72 h; TCDD 50 nM, OP 50 µM, CITCO 5 µM, PB 1,000 µM (highest conc.); mean ± SD, three donors
[26] = system: UGT1A1; test: as above
Procedure: as §1, §2

[27] = system: SLC29A1 (ENT1); test: as above; type: cell-based; details: SCHH, 72 h; TCDD 50 nM, OP 50 µM, CITCO 5 µM, PB 1,000 µM (highest conc.); mean ± SD, three donors
[28] = system: SLC51B; set-up: method as in Niu et al., 2019; details: rifampin (PXR ligand), human and monkey hepatocytes; ref Niu et al., 2019; cited from earlier work
[29] = SCHH, 72 h, TCDD 50 nM, OP 50 µM, CITCO 5 µM, PB 1,000 µM (highest conc.), mean ± SD, three donors

## Clc1cc2c(cc1Cl)Oc1cc(Cl)c(Cl)cc1O2 [TCDD, 2,3,7,8-tetrachlorodibenzo-p-dioxin]
[1]
  CYP3A4 mRNA fold change in single donors: < 0.5 fold
[2]
  SLC22A9 (OAT7) mRNA fold change: 0.9 ± 0.2 fold
[3]
  SLC51B (OSTβ) mRNA fold change: 1.6 ± 0.3 fold
[4]
  ABCC2 (MRP2) mRNA fold change: 0.9 ± 0.3 fold
[5]
  SLC22A1 (OCT1) mRNA fold change: 0.7 ± 0.3 fold
[6]
  SLCO1B1 (OATP1B1) mRNA fold change: 1.0 ± 0.4 fold
[7]
  ABCC4 (MRP4) mRNA fold change: 0.7 ± 0.2 fold
[8]
  ABCC5 (MRP5) mRNA fold change: 0.9 ± 0.3 fold
[9]
  SLCO2B1 (OATP2B1) mRNA fold change: 1.1 ± 0.4 fold
[10]
  ABCB11 (BSEP) mRNA fold change: 0.7 ± 0.3 fold
[11]
  SLC47A1 (MATE1) mRNA fold change: 0.9 ± 0.3 fold
[12]
  SLCO1B3 (OATP1B3) mRNA fold change: 0.8 ± 0.5 fold
[13]
  ABCC6 (MRP6) mRNA fold change: 0.8 ± 0.2 fold
[14]
  ABCC3 (MRP3) mRNA fold change: 1.0 ± 0.2 fold
[15]
  ABCB1 (MDR1) mRNA fold change: 1.0 ± 0.3 fold
[16]
  SLCO4C1 (OATP4C1) mRNA fold change: 0.8 ± 0.3 fold
[17]
  SLC16A1 (MCT1) mRNA fold change: 1.0 ± 0.2 fold
[18]
  SLC51A (OSTα) mRNA fold change: 1.5 ± 0.3 fold
[19]
  CYP2C9 mRNA fold change: 0.8 ± 0.3 fold
[20]
  SLC15A1 (PEPT1) mRNA fold change: 1.2 ± 0.3 fold
[21]; 72 h, TCDD 50 nM, OP 50 µM, CITCO 5 µM, PB 1,000 µM (highest conc.), mean ± SD, three donors
  SLC10A1 (NTCP) mRNA fold change: 0.5 ± 0.2 fold
[21]; 3 days, highest concentration treated
  SLC10A1 gene suppression (reduction): about 2 fold
[22]
  SLC22A7 (OAT2) mRNA fold change: 0.8 ± 0.2 fold
[23]; [29]
  CYP1A1 mRNA fold change: 38 fold and 38.1 ± 19.2 fold
[23]; human
  EC50 at 72 h: 0.5 ± 0.11 nM
[24]
  SLC29A2 (ENT2) mRNA fold change: 1.0 ± 0.2 fold
[25]
  SLC22A5 (OCTN2) mRNA fold change: 1.1 ± 0.2 fold
[26]; [29]
  UGT1A1 mRNA fold change: 4.3 fold and 4.3 ± 1.5 fold
[26]; human
  EC50 at 72 h: 1.56 ± 0.4 nM
[27]
  SLC29A1 (ENT1) mRNA fold change: 0.9 ± 0.4 fold

## CO[C@H]1/C=C/O[C@@]2(C)Oc3c(C)c(O)c4c(O)c(c(/C=N/N5CCN(C)CC5)c(O)c4c3C2=O)NC(=O)/C(C)=C\C=C\[C@H](C)[C@H](O)[C@@H](C)[C@@H](O)[C@@H](C)[C@H](OC(C)=O)[C@@H]1C [rifampin]
[28]
  SLC51B induction: greater than 10 fold

Source: publication PMC7859440, “Transporter Gene Regulation in Sandwich Cultured Human Hepatocytes Through the Activation of Constitutive Androstane Receptor (CAR) or Aryl Hydrocarbon Receptor (AhR)” (Frontiers in Pharmacology, 2021)
